Measurements taken from patent US9175282B2, “Cellobiose 2-epimerase, its preparation and uses” (HAYASHIBARA CO., LTD., priority 2009, dated 2015).
“Also recorded” adds a separate entry of the source.

Experiments:
[1] = test system: recombinant cellobiose 2-epimerase; assay: Substrate specificity of cellobiose 2-epimerase by TLC; assay type: biochemical, Caldicellulosiruptor saccharolyticus ATCC43494; set-up: key to Action: −: No product is detected; ±: Some products are slightly detected; +: Some products are detected; ++: Some products are clearly detected; conditions: for Action: 2% (w/w) substrate, MOPS buffer pH 8.0, 500 units/g-substrate, 60° C., 24 hours, product spot on TLC; for Action of the enzyme on the saccharide: summary of Table 3
Experimental: Substrate specificity of the enzyme was investigated by allowing the purified preparation of the recombinant cellobiose 2-epimerase, obtained by the method of Experiment 4-4, to act on various saccharides. Substrate solutions were prepared by dissolving D-glucose, D-xylose, D-allose, D-ribose, D-galactose, D-fructose, D-mannose, D-psicose, D-tagatose, L-sorbose, L-rhamnose, L-ribose, trehalose, kojibiose, nigerose, isomaltose, neotrehalose, gentiobiose, lactose, sucrose, maltulose, palatinose, maltose, maltotriose, maltotetraose, maltopentaose, maltohexaose, maltoheptaose, cellobiose, cellotriose, cellotetraose, selaginose, isomaltosyl-glucoside, isomaltotriose, panose, isopanose, erlose, maltitol, maltotriitol, methyl-α-glucoside, methyl-β-glucoside, D-glucosamine, D-galactosamine, D-glucuronic acid, N-acetyl-glucosamine, or N-acetyl-galactosamine into MOPS buffer (pH 8.0) to give a final concentration of 2% (w/w) of saccharide and 40 mM buffer.
Then, each of the resulting substrate solutions was further admixed with 500 units/g-substrate, on a dry solid basis, of the purified preparation of recombinant cellobiose 2-epimerase, obtained by the method in Experiment 4-4, and followed by the enzyme reaction at 60° C. for 24 hours. After stopping the reaction by heating the reaction mixture at 100° C. for 10 minutes, each reaction mixture was subjected to TLC analysis under the conditions in Experiment 1-2 to examine the saccharides in each mixture before and after the reaction. The substrate specificity of the enzyme was judged by investigating whether the spot of the reaction product except for the substrate is detected in the TLC chromatogram or not, and the degree of the strength of the visualized spot.

[2] = test system: recombinant cellobiose 2-epimerase; assay: Formation of isomerized saccharides from various saccharides, effect of the amount of enzyme; assay type: biochemical, Caldicellulosiruptor saccharolyticus ATCC43494; conditions: 10% (w/v) substrate, pH 6.0, 60° C., 72 hours
Experimental: (§1) Each of them was dissolved into 20 mM acetate buffer (pH 6.0), admixed with the purified preparation of the recombinant cellobiose 2-epimerase, obtained by the method in Experiment 4-4, and followed the enzyme reaction under the conditions of 10% (w/v) substrate concentration, 60° C. for 72 hours. The amount of enzyme was set to 130 or 500 units/g-substrate when monosaccharide was used as the substrate, and to 1 or 130 units/g-substrate when disaccharide or trisaccharide was used as the substrate. Each reaction mixture was heated at 100° C. for 10 minutes to stop the reaction and subjected to HPLC analysis to determine the contents of isomerized saccharide, on a dry solid basis. The contents of epilactose and lactulose in the reaction mixture obtained using lactose as substrate were determined by GC analysis described in Experiment 1-2.

[3] = test system: recombinant cellobiose 2-epimerase; assay: Isomerized saccharides formed from monosaccharides (HPLC); assay type: biochemical, Caldicellulosiruptor saccharolyticus ATCC43494
Experimental: (§2) Reaction products formed from D-glucose, D-galactose, and D-mannose by the action of the cellobiose 2-epimerase of the present invention were investigated. D-Glucose, D-galactose, or D-mannose was dissolved into 50 mM acetate buffer (pH 6.0) to give a final concentration of 20% (w/v) to make into a substrate solution. To 0.1 ml of the substrate solution, 130 units/g-solid substrate for D-glucose and D-mannose (0.1 ml as the enzyme solution), or 500 units/g-solid substrate for D-galactose (0.1 ml as the enzyme solution), of the purified preparation of the recombinant cellobiose 2-epimerase, obtained by the method in Experiment 4-4, was admixed; and followed the enzyme reaction at 60° C. for 48 hours.
After the completion of the reaction, reaction mixture was heated at 100° C. for 10 minutes to stop the reaction. Each reaction mixture was subjected to HPLC analysis for determining the product. HPLC analysis of the products in the reaction mixture was carried out under the following conditions for separating monosaccharides.

[4] = ingested in rat; cited from earlier work
[5] = Optimum temperature and optimum pH of epimerase activity; assay type: biochemical; conditions: for Optimum pH: reacted at 50° C. for 20 minutes; for Optimum temperature: reacted at pH 6.0 for 20 minutes
Experimental: (§3) Through the specification of the present invention, the activity of the cellobiose 2-epimerase was determined as a lactose 2-epimerase activity, which catalyzes epimerization of lactose to form epilactose, using lactose as the substrate obtainable in highly purified form at low cost. The lactose 2-epimerase activity was measured as follows. To 1,000 μl of substrate solution, which contains lactose to give a final concentration of 35.1 mM and acetate buffer (pH 6.0) to give a final concentration of 20 mM of the reaction solution, 200 μl of a enzyme solution was added to give a 1,200 μl of the reaction solution, followed by reaction at 50° C. for 20 minutes. The reaction was stopped by heating for 10 minutes in a boiling water bath. Then reaction mixture was subjected to HPLC chromatography to determine the amount of epilactose produced by the reaction. The HPLC chromatography was conducted at the following conditions;
Using the purified cellobiose 2-epimerase preparation obtained by the method of Experiment 2, effects of temperature and pH on the epimerase activity were investigated according to the method of assaying the activity. The results were in FIG. 3 (optimum temperature) and FIG. 4 (optimum pH). The optimum temperature of the enzyme is 80° C. when reacted at pH 6.0 for 20 minutes. The optimum pH of the enzyme is 7.8 when reacted at 50° C. for 20 minutes.

[6] = Substrate specificities of the cellobiose 2-epimerase (summary Table 6); assay type: biochemical; conditions: listed as Caldicellulosiruptor saccharolyticus ATCC43494
Experimental: as §2, §1
The physicochemical properties and substrate specificities of the cellobiose 2-epimerase from Caldicellulosiruptor saccharolyticus ATCC43494, obtained from above experiments, were shown in Table 6 together with those of conventional cellobiose 2-epimerases from Ruminococcus albus (excerpted from Non-Patent Document 3) and Eubacterium cellosolvens (excerpted from Non-Patent Document 4).

cellobiose 2-epimerase = assay: Effect of metal ions on the epimerase activity; assay type: biochemical, Caldicellusiruptor saccharolyticus ATCC43494; conditions: ions that inhibit the enzyme; listed as Caldicellulosiruptor saccharolyticus ATCC43494
[7] = Lactose 2-epimerase activity of enzyme preparations; assay type: biochemical; conditions: purified enzyme
Experimental: as §3, with “conditions; […]” for “conditions;”
Then, each seed culture broth was inoculated into 10 L of the same medium eight each in eight 11-L pressure steel bottles and cultured. […] The epimerase activity of the crude enzyme was determined to be 0.009 Unit/ml.
The enzyme preparation purified by the above process contained 0.9 mg protein, and its activity yield was 3.4% from the crude enzyme. […] The amount of protein was measured by Lowry method using bovine serum albumin as standard.

[8] = Thermostability and pH stability (residual activity); conditions: incubated at pH 6.0 for 60 minutes
Experimental: The thermostability was determined as the residual activity of the enzyme, after incubated at given temperatures for 60 minutes in 10 mM acetate buffer (pH 6.0) followed by being cooled in cold water.

[9] = 500 units/g-substrate, pH 6.0, 60° C., 48 hours
[10] = 130 units/g-substrate, pH 6.0, 60° C., 48 hours

In the case of `O=C[C@H](O)[C@@H](O)[C@@H](O)[C@H](O)CO` [D-Galactose], the Action [1] is reported as “±”, the “Action of the enzyme on the saccharide” value [1] is reported as “slightly acted on” and the “Content of isomerized saccharide in the reaction mixture (%): D-Tagatose” value ([2]; 500 units/g-substrate) is reported as 9.2%. For the same molecule, the “Content of isomerized saccharide in the reaction mixture (%): D-Talose” value ([2]; 500 units/g-substrate) was 11.0%, the “Action of the enzyme compared with D-glucose and D-mannose” value [3] was “relatively weak” and the “Content (%, w/w) of product D-Tagatose” value [3, 9] was 8.4 %, w/w. The “Content (%, w/w) of product D-Talose” value [3, 9] was 10.3 %, w/w.

In the case of `O=C[C@H](O)[C@@H](O)[C@H](O)[C@H](O)CO` [D-Glucose], the Action [1] is reported as “+”, the “Action of the enzyme on the saccharide” value [1] is reported as “acted on” and the “Content of isomerized saccharide in the reaction mixture (%): D-Fructose” value (“Content … (%): D-Fructose” below) ([2]; 130 units/g-substrate) is reported as 5.0%. For the same molecule, the “Content of isomerized saccharide in the reaction mixture (%): D-Mannose” value ([2]; 130 units/g-substrate) was 20.9%, the “Content … (%): D-Fructose” value ([2]; 500 units/g-substrate) was 9.2% and the “Content of isomerized saccharide in the reaction mixture (%): D-Mannose” value ([2]; 500 units/g-substrate) was 23.3%. For the same molecule, the “Content (%, w/w) of product D-Fructose” value [3, 10] was 3.8 %, w/w and the “Content (%, w/w) of product D-Mannose” value [3, 10] was 20.6 %, w/w.

In the case of `OC[C@H]1O[C@@H](O[C@H]2[C@H](O)[C@H](O)C(O)O[C@@H]2CO)[C@H](O)[C@@H](O)[C@H]1O` (stereo partly drawn) [epilactose], the “Amount of short-chain fatty acid in the intestine” value [4] is listed as “increasing the amount of short-chain fatty acid in the intestine”, the “Calcium absorption in the small intestine” value [4] is listed as “promoting calcium absorption in the small intestine” and the Plasma cholesterol level [4] is listed as “lowering the plasma cholesterol level”.

In the case of `O=C[C@@H](O)[C@@H](O)[C@H](O)[C@H](O)CO` [D-Mannose], the Action [1] is reported as “+”, the “Action of the enzyme on the saccharide” value [1] is reported as “acted on” and the “Content … (%): D-Fructose” value ([2]; 130 units/g-substrate) is reported as 6.6%. For the same molecule, the “Content of isomerized saccharide in the reaction mixture (%): D-Glucose” value ([2]; 130 units/g-substrate) was 45.8%, the “Content (%, w/w) of product D-Fructose” value [3, 10] was 5.1 %, w/w and the “Content (%, w/w) of product D-Glucose” value [3, 10] was 41.8 %, w/w.

B1: cellobiose 2-epimerase of the present invention: thermostable cellobiose 2-epimerase of Caldicellusiruptor saccharolyticus ATCC43494, amino acid sequence of SEQ ID NO:10 with 390 residues (protein, listed as Caldicellulosiruptor saccharolyticus)
chain: MDITRFKEDLKAHLEEKIIPFWQSLKDDEFGGYYGYMDFNLNIDRKAQKGCILNSRILWFFSACYNVLKSEKCKEMAFHAFEFLKNKFWDKEYEGLFWSVSHKGVPVDVTKHVYVQAFGIYGLSEYYEASGDEEALHMAKRLFEILETKCKRENGYTEQFERNWQEKENRFLSENGVIASKTMNTHLHVLESYTNLYRLLKLDDVYEALEWIVRLFVDKIYKKGTGHFKVFCDDNWNELIKAVSYGHDIEASWLLDQAAKYLKDEKLKEEVEKLALEVAQITLKEAFDGQSLINEMIEDRIDRSKIWWVEAETVVGFFNAYQKTKEEKYLDAAIKTWEFIKEHLVDRRKNSEWLWKVNEDLEAVNMPIVEQWKCPYHNGRMCLEIIKRVD
For B1, the “Optimum pH” value [5] was 7.8, the Optimum temperature [5] was 80 °C and the Optimum temperature ([5]; listed as Caldicellulosiruptor saccharolyticus ATCC43494) was 80 °C. For the same molecule, the Optimum temperature ([5]; listed as purified cellobiose 2-epimerase preparation) was 80 °C, the “Substrate specificity: Cellobiose” value ([6]; substrate Cellobiose) was “epicellobiose” and the “Substrate specificity: D-Galactose” value ([6]; substrate D-Galactose) was “Forming D-talose”. For the same molecule, the “Substrate specificity: D-Glucose” value ([6]; substrate D-Glucose) was “Forming D-mannose”, the “Substrate specificity: D-Mannose” value ([6]; substrate D-Mannose) was “Forming D-glucose” and the “Substrate specificity: Lactose” value ([6]; substrate Lactose) was “Forming epilactose”. The “Substrate specificity: Maltose” value ([6]; substrate Maltose) was “Forming epimaltose”, the “Inhibition by metal ions” value (cellobiose 2-epimerase) was “Al^3+, Fe^2+, Fe^3+,; also recorded: Pb^2+, Cu^2+, Zn^2+,; also recorded: Hg^2+” and the Specific activity [7] was 26.9 unit/mg-protein.

B2: recombinant epimerase: cellobiose 2-epimerase expressed in E. coli transformant ETCS1 and purified by heat treatment and chromatography (protein, listed as Caldicellulosiruptor saccharolyticus)
chain: B1 chain
In the case of B2, the “Optimum pH” value [5] is reported as “about 7.8”, the Optimum temperature [5] is reported as “about 80 °C” and the “Thermostability (stable up to)” value [8] is reported as “up to 70 °C”.
